Experimental data taken from the supplement of paper PMC10307832.

What follows are cell lines tested with O=C(/C=C/c1ccccc1)NC(NC(=S)Nc1cccc2cccnc12)C(Cl)(Cl)Cl [Salubrinal] + CC(C)C[C@H](NC(=O)[C@H](Cc1ccccc1)NC(=O)c1cnccn1)B(O)O [Bortezomib] (partner 0.002 µM) (assay: relative viability (nuclei count vs DMSO), 5 days (fraction); higher = more cells survive). Settings: first compound 0.08 µM.
Outline: (§1)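 Lung cancer cell lines in 1536-well plates got either a single drug or a fixed anchor-drug dose together with five library-drug doses (not always all listed) in √10 steps, by pin tool, on the day after seeding. Nuclei were counted after 5 days, and relative viability is the treated-to-vehicle ratio of nuclei counts. Values are medians of duplicate plates.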
With LU99A the relative viability was 1.3. Work on BEN yielded a relative viability of 0.716. HARA gave a relative viability of 1.14. HCC-78 was tested, and the relative viability was 0.516. Cell Line NCI-H322M has a relative viability of 1.33. LCLC-97TM1 was tested, and the relative viability was 0.995. NCI-H2009 was tested, and the relative viability was 1.07. A-427 gave a relative viability of 0.96. For NCI-H441, the relative viability was 0.392. For NCI-H661, the relative viability was 0.876. Work on NCI-H1734 yielded a relative viability of 0.9. With NCI-H460 the relative viability was 1.66. For NCI-H2347, the relative viability was 1.05. Work on SK-LU-1 yielded a relative viability of 1. 201T was tested, and the relative viability was 1.14. Cell Line NCI-H1915 has a relative viability of 0.98. HCC-827 showed a relative viability of 0.98. LXF-289 showed a relative viability of 1.06. Cell Line NCI-H23 has a relative viability of 1.25. For NCI-H647, the relative viability was 1.05. In the case of CAL-12T, the relative viability is reported as 0.983. With NCI-H1651 the relative viability was 0.972. In the case of EPLC-272H, the relative viability is reported as 0.884. NCI-H2228 was tested, and the relative viability was 1.08. Cell Line NCI-H1355 has a relative viability of 1.32. In the case of NCI-H3122, the relative viability is reported as 1.

Same assay, conditions: first compound 0.253 µM
With HOP-62 the relative viability was 0.576. With LU99A the relative viability was 1.31. Cell Line BEN has a relative viability of 0.721. HARA showed a relative viability of 1.01. Work on HCC-78 yielded a relative viability of 0.579. Work on NCI-H322M yielded a relative viability of 1.15. Work on NCI-H2009 yielded a relative viability of 1.05. A-427 gave a relative viability of 0.908. With NCI-H441 the relative viability was 0.516. Cell Line NCI-H661 has a relative viability of 0.781. With NCI-H1734 the relative viability was 0.941. NCI-H460 was tested, and the relative viability was 0.452. Work on NCI-H2347 yielded a relative viability of 1.04. Cell Line SK-LU-1 has a relative viability of 1.07. With 201T the relative viability was 1.06. In the case of NCI-H1915, the relative viability is reported as 0.56. For HCC-827, the relative viability was 0.955. In the case of LXF-289, the relative viability is reported as 0.654. For NCI-H23, the relative viability was 0.871. Work on NCI-H647 yielded a relative viability of 1.37. For CAL-12T, the relative viability was 0.899. Cell Line NCI-H1651 has a relative viability of 0.925. Cell Line EPLC-272H has a relative viability of 0.756. With NCI-H2228 the relative viability was 1.18. For NCI-H1355, the relative viability was 1.15. Cell Line NCI-H3122 has a relative viability of 1.01.

Same assay, conditions: first compound 0.8 µM
In the case of HOP-62, the relative viability is reported as 0.601. LU99A showed a relative viability of 1.37. Cell Line BEN has a relative viability of 0.979. HARA was tested, and the relative viability was 1.16. HCC-78 showed a relative viability of 0.521. With NCI-H322M the relative viability was 1.26. In the case of LCLC-97TM1, the relative viability is reported as 1.22. Cell Line NCI-H2009 has a relative viability of 1.01. For A-427, the relative viability was 1.12. NCI-H441 gave a relative viability of 0.386. Work on NCI-H661 yielded a relative viability of 0.714. For NCI-H1734, the relative viability was 1.11. NCI-H460 gave a relative viability of 1.4. NCI-H2347 was tested, and the relative viability was 0.998. For SK-LU-1, the relative viability was 1.63. 201T was tested, and the relative viability was 1.14. For NCI-H1915, the relative viability was 1.09. In the case of HCC-827, the relative viability is reported as 1.23. With LXF-289 the relative viability was 1.06. NCI-H23 gave a relative viability of 1.2. With NCI-H647 the relative viability was 1.2. Cell Line CAL-12T has a relative viability of 1.54. NCI-H1651 was tested, and the relative viability was 0.994. EPLC-272H gave a relative viability of 1.11. With NCI-H2228 the relative viability was 1.26. NCI-H1355 showed a relative viability of 1.2. Work on NCI-H3122 yielded a relative viability of 0.927.

Same assay, conditions: first compound 2.53 µM
HOP-62 showed a relative viability of 0.874. LU99A gave a relative viability of 0.971. For BEN, the relative viability was 0.941. With HARA the relative viability was 1.13. For HCC-78, the relative viability was 0.537. Work on NCI-H322M yielded a relative viability of 1.22. With LCLC-97TM1 the relative viability was 0.626. NCI-H2009 was tested, and the relative viability was 1.01. For A-427, the relative viability was 0.961. NCI-H441 gave a relative viability of 0.372. For NCI-H661, the relative viability was 0.821. In the case of NCI-H1734, the relative viability is reported as 0.969. NCI-H460 gave a relative viability of 1.08. NCI-H2347 was tested, and the relative viability was 1.17. For SK-LU-1, the relative viability was 1.21. In the case of 201T, the relative viability is reported as 1.09. NCI-H1915 was tested, and the relative viability was 1.03. For HCC-827, the relative viability was 1.05. Cell Line LXF-289 has a relative viability of 0.969. Cell Line NCI-H23 has a relative viability of 1.04. NCI-H647 showed a relative viability of 1.06. CAL-12T showed a relative viability of 0.915. With NCI-H1651 the relative viability was 0.925. With EPLC-272H the relative viability was 1.1. NCI-H2228 was tested, and the relative viability was 0.983. NCI-H1355 gave a relative viability of 1.32. In the case of NCI-H3122, the relative viability is reported as 0.98.

Same assay, conditions: first compound 8 µM
For HOP-62, the relative viability was 1.04. LU99A was tested, and the relative viability was 0.909. Cell Line BEN has a relative viability of 0.909. HARA was tested, and the relative viability was 1.06. Cell Line HCC-78 has a relative viability of 0.427. In the case of NCI-H322M, the relative viability is reported as 1.19. LCLC-97TM1 was tested, and the relative viability was 0.637. With NCI-H2009 the relative viability was 0.771. Work on A-427 yielded a relative viability of 1.06. For NCI-H441, the relative viability was 0.362. Cell Line NCI-H661 has a relative viability of 0.865. Cell Line NCI-H1734 has a relative viability of 0.981. NCI-H460 gave a relative viability of 1.21. Work on NCI-H2347 yielded a relative viability of 1.04. In the case of SK-LU-1, the relative viability is reported as 0.941. Work on 201T yielded a relative viability of 1.11. NCI-H1915 was tested, and the relative viability was 0.954. Work on HCC-827 yielded a relative viability of 1.07. LXF-289 showed a relative viability of 0.851. In the case of NCI-H23, the relative viability is reported as 1.16. Cell Line NCI-H647 has a relative viability of 0.792. For CAL-12T, the relative viability was 0.998. Work on NCI-H1651 yielded a relative viability of 0.921. EPLC-272H gave a relative viability of 0.855. NCI-H2228 showed a relative viability of 0.876. With NCI-H1355 the relative viability was 1.22. NCI-H3122 gave a relative viability of 0.991.

Each cell line was assayed with Cc1ccc2nc(NCCN)c3ncc(C)n3c2c1 + Nc1nc2[nH]cc(CCc3ccc(C(=O)N[C@@H](CCC(=O)O)C(=O)O)cc3)c2c(=O)[nH]1 [Pemetrexed] (partner 0.2 µM) in the same assay as above. Settings: first compound 0.04 µM.
Outline: as §1
HOP-62 was tested, and the relative viability was 0.298.
